Measured values taken from article PMC7614683, “A small molecule PI3Kα activator for cardioprotection and neuroregeneration” (Nature, 2023).
Like-named read-outs stand apart in the source and are kept apart here.

How the values were obtained:
[1] = biological target: BRK (Homo sapiens, UniProt Q13882); test: SelectScreen kinase profiling, BRK; type: biochemical
Experimental: 133 protein kinases and 7 lipid kinases were counterscreened, with 1938 used at 1 μM, using the Adapta, Lantha and Z-LYTE assays (SelectScreen Kinase Profiling Service; Thermofisher – experimental details of these assays can be found here: https://www.thermofisher.com/uk/en/home/industrial/pharma-biopharma/drug-discovery-development/target-and-lead-identification-and-validation/kinasebiology/kinase-activity-assays.html. The tree represention in KinMap[59] generated courtesy of Cell Signaling Technology, Inc. (www.cellsignal.com). mTORC1 (mTOR/RAPTOR/LST8) protein complex and ATM kinase and substrates were produced as previously described[57],[60]. Screening of 1938 was conducted using SuperSep Phos-Tag 50 μmol/l 100 x 100 x 6.6 mm 17-well (192-18001/199-18011) gels. For ATM assays, 100 nM ATM was incubated for 30 min at 30°C with 5 μM GST-p53 and 1 mM ATP, in the absence or presence of 200 μM 1938 in ATM Kinase Buffer (50 mM HEPES pH 7.5, 100 mM NaCl, 10% glycerol, 2 mM […], 5 mM MgCl2). As a positive control for ATM activation, the same reaction was carried out with 100 nM ATM/5 μM GST-p53/1 mM ATP in the presence of 100 nM Mre11-Rad50-Nbs1 (MRN) complex, a known activator of ATM[61]. For mTORC1 assays, 50 nM mTORC1 complex (mTOR/LST8/RAPTOR) was incubated for 3 h at 30°C with 15 μM 4E-BP1, 10 mM MgCl2 and 250 μM ATP, in the absence or presence of 200 μM 1938. As a ‘positive’ control, a higher concentration (150 nM) of mTORC1 complex (mTOR/LST8/RAPTOR) was incubated for 3 h at 30°C with 15 μM 4E-BP1, 10 mM MgCl2 and 250 μM ATP. Kinase reactions were quenched by addition of SDS-PAGE Loading Buffer (as per manufacturer’s instructions) and freezing at -20°C before being run on the Phos-tag gels at 150 V for 90 min. Gels were then stained using InstantBlue™ Coomassie, and quantified using BioRad Image Lab Software. Kinase assays were carried out in triplicate.

[2] = biological target: T1, PI3Kα G106V mutant (Homo sapiens, UniProt P42336, G106V); test: ADP-Glo catalytic activity, oncogenic mutant G106V; type: biochemical
T1 construct: Full-length human p110α was expressed either in a complex with full-length human p85α (for HTS, biochemistry and HDX-MS); 6xHis tag followed by TEV protease site (N); host or cells: Sf9, baculovirus
T1 sequence (P42336 whole entry G106V): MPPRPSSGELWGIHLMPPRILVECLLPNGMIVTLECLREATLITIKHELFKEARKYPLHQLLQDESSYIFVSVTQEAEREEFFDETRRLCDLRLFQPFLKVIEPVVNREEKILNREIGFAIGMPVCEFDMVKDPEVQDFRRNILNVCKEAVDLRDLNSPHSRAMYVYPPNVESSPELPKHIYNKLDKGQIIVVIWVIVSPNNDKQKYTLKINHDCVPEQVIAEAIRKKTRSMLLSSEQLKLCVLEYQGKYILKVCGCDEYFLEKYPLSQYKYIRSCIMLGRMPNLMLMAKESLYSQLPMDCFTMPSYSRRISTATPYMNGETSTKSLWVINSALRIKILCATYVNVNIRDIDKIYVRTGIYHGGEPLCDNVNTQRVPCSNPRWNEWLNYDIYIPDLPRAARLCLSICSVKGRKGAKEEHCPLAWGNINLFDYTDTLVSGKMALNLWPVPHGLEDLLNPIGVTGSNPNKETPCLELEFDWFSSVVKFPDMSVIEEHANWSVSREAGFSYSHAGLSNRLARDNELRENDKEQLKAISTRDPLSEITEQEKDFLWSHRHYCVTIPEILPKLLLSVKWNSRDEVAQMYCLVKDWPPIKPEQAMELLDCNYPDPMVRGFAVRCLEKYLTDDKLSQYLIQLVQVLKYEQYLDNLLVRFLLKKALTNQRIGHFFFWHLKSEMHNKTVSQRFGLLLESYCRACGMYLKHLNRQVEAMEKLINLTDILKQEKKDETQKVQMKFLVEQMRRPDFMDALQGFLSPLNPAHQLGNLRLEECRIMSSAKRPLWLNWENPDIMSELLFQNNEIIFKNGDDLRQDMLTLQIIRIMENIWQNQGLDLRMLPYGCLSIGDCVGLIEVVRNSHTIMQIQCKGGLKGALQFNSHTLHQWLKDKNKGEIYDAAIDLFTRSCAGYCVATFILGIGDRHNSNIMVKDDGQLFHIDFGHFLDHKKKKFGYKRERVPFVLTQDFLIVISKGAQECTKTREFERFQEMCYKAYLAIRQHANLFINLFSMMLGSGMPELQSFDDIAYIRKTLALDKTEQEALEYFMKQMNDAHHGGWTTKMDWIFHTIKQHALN
T1 sequence (P27986 whole entry partner): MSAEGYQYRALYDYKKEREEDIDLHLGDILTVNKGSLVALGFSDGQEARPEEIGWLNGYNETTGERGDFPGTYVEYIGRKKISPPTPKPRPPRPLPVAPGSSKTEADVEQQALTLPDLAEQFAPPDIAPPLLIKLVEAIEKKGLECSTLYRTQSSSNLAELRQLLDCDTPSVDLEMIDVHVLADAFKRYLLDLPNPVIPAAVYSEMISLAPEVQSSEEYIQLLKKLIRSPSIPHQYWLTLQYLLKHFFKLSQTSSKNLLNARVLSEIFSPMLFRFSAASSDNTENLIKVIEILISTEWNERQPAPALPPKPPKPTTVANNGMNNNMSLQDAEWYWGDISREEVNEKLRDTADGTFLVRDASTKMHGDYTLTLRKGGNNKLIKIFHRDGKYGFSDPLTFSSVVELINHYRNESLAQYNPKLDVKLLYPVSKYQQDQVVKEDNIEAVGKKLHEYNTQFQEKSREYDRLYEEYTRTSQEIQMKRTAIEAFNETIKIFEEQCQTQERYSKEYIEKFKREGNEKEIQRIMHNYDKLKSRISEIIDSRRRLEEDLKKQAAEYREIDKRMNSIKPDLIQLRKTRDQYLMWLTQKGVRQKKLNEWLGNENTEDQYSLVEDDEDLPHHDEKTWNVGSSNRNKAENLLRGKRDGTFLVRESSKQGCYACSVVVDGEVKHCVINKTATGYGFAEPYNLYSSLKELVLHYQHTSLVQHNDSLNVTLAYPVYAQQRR
Experimental: Expression and purification of wild-type p110α (Cambridge MRC Laboratory for Molecular Biology (LMB-MRC) plasmid number OP831) in a complex with full-length p85α (LMB-MRC plasmid OP809) was performed as described. The oncogenic mutants G106V (LMB-MRC plasmid JB35), N345K (LMB-MRC plasmid OP661) and E545K (LMB-MRC plasmid OP663) were also purified using this protocol. Briefly, 10 litres of Spodoptera frugiperda (Sf9) cell culture at a density of 1.0 x 10^6 cells/ml were co-infected with a p85α-encoding virus [LMB-MRC plasmid OP809]. and a virus encoding p110α with an N-terminal 6xHis tag followed by a tobacco etch virus (TEV) protease site [LMB-MRC plasmid OP831]. After a 48 h infection at 27°C, cells were harvested and washed with PBS. […]
For characterisation of the effects of 1938 on in vitro PI3K enzymology, all reactions were performed at room temperature with 384 white-polystyrene plates (Corning #3574). […] Data was expressed as velocity (nmol of ADP generated/nmol of enzyme/sec). […] Luminescence was read using a PHERAstar® plate reader with software version 5.41, and analyses were performed using GraphPad Prism 8/9.

BRK, sequence (Q13882 whole entry): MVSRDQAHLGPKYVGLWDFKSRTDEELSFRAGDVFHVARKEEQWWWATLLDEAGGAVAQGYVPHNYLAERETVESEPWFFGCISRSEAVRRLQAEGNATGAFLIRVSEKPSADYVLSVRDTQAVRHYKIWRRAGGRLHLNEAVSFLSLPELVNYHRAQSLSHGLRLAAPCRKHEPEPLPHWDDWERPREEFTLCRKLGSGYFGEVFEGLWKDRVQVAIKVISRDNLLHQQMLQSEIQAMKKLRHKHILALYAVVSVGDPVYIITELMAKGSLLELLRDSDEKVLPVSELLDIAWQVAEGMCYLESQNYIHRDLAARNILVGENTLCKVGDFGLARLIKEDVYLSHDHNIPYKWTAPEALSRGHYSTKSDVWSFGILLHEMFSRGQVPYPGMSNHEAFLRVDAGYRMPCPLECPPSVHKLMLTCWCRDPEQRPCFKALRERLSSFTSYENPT

## CCN1CCN(c2ccc(Nc3cc(Nc4cccc5c4N(C(C)=O)CC5)ccn3)cc2)CC1 [Compound 1938]
[1]; read-out: % Inhibition Point 1
  inhibition at 1 µM: 55%
[1]; read-out: % Inhibition Point 2
  inhibition at 1 µM: 56%
[1]; read-out: % Inhibition mean
  inhibition at 1 µM: 56%
[2]
  activation of G106V mutant: levels comparable with stimulation with pY
